Source: PMC11249646, “Small-Molecule Disruptors of the Interaction between Calcium- and Integrin-Binding Protein 1 and Integrin αIIbβ3 as Novel Antiplatelet Agents” (ACS Pharmacology & Translational Science, 2024)
Like-named read-outs stand apart in the source and are kept apart here.

Target: T1, CIB1 and αIIb interaction (CIB1-GST : F-αIIb peptide) (Homo sapiens, UniProt Q99828)
T1 construct: made in house; host or cells: BL-21 plus RIL cells (E. coli)
T1 sequence (Q99828 1-191): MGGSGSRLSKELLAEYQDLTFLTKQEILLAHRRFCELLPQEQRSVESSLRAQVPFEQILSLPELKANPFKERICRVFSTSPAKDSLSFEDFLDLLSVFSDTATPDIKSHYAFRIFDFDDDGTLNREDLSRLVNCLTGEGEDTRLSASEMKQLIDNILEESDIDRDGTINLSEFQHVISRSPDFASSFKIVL
Assay: FP assay, 1536-well qHTS format (primary and confirmatory screen)
Type: binding
Details: for Efficacy (%): negative = inhibition; for Curve Class: negative sign = inhibitory curve; for IC50: read-out: IC50

[1] = qHTS primary screen hits, Table S2
[2] = qHTS primary screen hits, Table S2, several classes where COUNT > 1
[3] = qHTS primary screen of LOPAC/NPACT libraries

Row | SMILES | Efficacy (%) [1] | IC50 [1] | Curve Class [1] | Efficacy (%) [3] | Curve Class [3] | IC50 [3] | other results
1 | CN1CCN(CCC(=O)N2c3ccccc3Sc3ccc(C(F)(F)F)cc32)CC1.Cl [NCGC00160483-02] | -60% | 56.2 µM | – | – | – | – | Curve Class [2]: -2.4
2 | O=C(O)C1NCc2[nH]cnc2C1c1ccccc1 (centres unmarked) [NCGC00167998-01] | -28% | 50.1 µM | -2.4 | – | – | – | –
3 | Cc1cc(NS(=O)(=O)c2ccc(Nc3nc(-c4ccc(C)c(C)c4)cs3)cc2)no1.O=C(O)C(F)(F)F [NCGC00249742-01] | -32% | 44.7 µM | – | – | – | – | Curve Class [2]: -2.4
4 | O=C(O)c1ccccc1Nc1cccc(OCc2ccc3ccccc3n2)c1 [NCGC00015965-05] | -42% | 50.1 µM | -2.2 | – | – | – | –
5 | CC(C)=CCOc1ccc(/C=C/C(=O)c2ccc(OCC=C(C)C)cc2OCC(=O)O)cc1 [NCGC00159481-03] | -94% | 100 µM | -3 | – | – | – | –
6 | COc1cc(/C=C(\C#N)C(=O)Nc2nnc(C(F)(F)F)s2)ccc1OCc1ccc(C(F)(F)F)cc1C(F)(F)F [NCGC00165952-02] | – | – | – | -19% | -1.4 | 5.6 µM | –
7 | C=C1CC2OC(=O)C(=C)C2C(OC(=O)/C(C)=C\C)CC2(C)OC1=CC2=O (centres unmarked) [NCGC00384607-01] | – | – | – | -25% | -1.4 | 11.2 µM | –
8 | C=C1CC(=O)C2OC2(C)CC2OC(=O)C(=C)C2C(O)C1OC(=O)/C(C)=C\C (centres unmarked) [NCGC00381057-01] | – | – | – | -21% | -1.4 | 14.1 µM | –
9 | COc1cc(SC)ccc1C(=O)N1CCC(Cc2ccccc2)CC1 [NCGC00167816-02] | – | – | – | -11% | -1.4 | 3.2 µM | –
10 | C=C1C(=O)O[C@@H]2[C@H]3C(C)=CC(=O)C3=C(C)CC[C@@H]12 [NCGC00485131-01] | – | – | – | -24% | -1.4 | 10 µM | –
11 | Cc1cc(O)c2c(c1)C(=O)c1cc(O)cc(O)c1C2=O [NCGC00015420-08] | -31% | 10 µM | -1.2 | – | – | – | –
12 | O=C(O)CCc1nc(-c2ccccc2)c(-c2ccccc2)o1 [NCGC00014711-11] | – | – | – | -11% | -2.4 | 89.1 µM | –
13 | O=C(NCc1ccc(Oc2ccccc2)cc1)c1nc(-c2cc(Br)c(O)c(Br)c2)no1 [NCGC00386303-01] | – | – | – | -24% | -1.4 | 17.8 µM | –
14 | CC(=O)NC(c1cccs1)c1cc(Br)c2cccnc2c1O (centres unmarked) [NCGC00188370-02] | – | – | – | – | – | – | Efficacy (%) (qHTS FP screen hits, Table S2): -40%; IC50 (qHTS FP screen hits, Table S2): 45.5 µM
15 | O=C(O)C(F)(F)F.OCc1ccc(-c2ccc3ncnc(NCc4ncc[nH]4)c3c2)o1 [NCGC00188670-01] | -33% | 56.2 µM | – | – | – | – | Curve Class [2]: -2.4
16 | N#Cc1cc2nc([O-])c([O-])nc2cc1[N+](=O)[O-].[Na+].[Na+] [NCGC00015198-04] | -48% | 35.5 µM | -2.2 | – | – | – | –
17 | CC1OC2OC(=O)C3(C)CC4C5(CO5)C5=CC(=O)OC(C)(C)C5=CC(=O)C4(C)C(C1=O)C23 (centres unmarked) [NCGC00380663-01] | -57% | 31.6 µM | – | – | – | – | Curve Class (qHTS primary screen hits, Table S2, NPACT library): -2.2
18 | C[C@H](O)C(=O)C1=Nc2c(nc(N)[nH]c2=O)NC1 [NCGC00094391-03] | -40% | 35.5 µM | -2.2 | – | – | – | –
